# Experimental data as given in patent publication US9012403B2, “Peptides as active agents to stabilize biological barriers” (XiberScience GmbH, priority 2010, dated 2015).
# Tested on: Ventilator-Induced Lung Injury (VILI)
# Assay: Ventilator-induced lung injury (VILI) after LPS pre-challenge
# Assay type: in vivo
# Conditions: mice
# Protocol: Experiments were performed with healthy C57BL/6 (aged 8-10 weeks, with weights ranging from 19-25 g). All interventions were performed according to the guide lines of AAALAC. All experiment were approved by the Ethic committee of the University of Amsterdam.
# Mice were challenged with LPS (dosage: 50 μg per mouse) (or saline), via intranasal injection 2 h before initiation of mechanical ventilation, to induce lung injury.
# XIB1-1b (or random peptide) was administered i.v. 10 min before start of mechanical ventilation (dosage: 4 mg/kg loading dose, followed administration i.v. injections 1 mg/kg/h.
# A Y-tube connector with 1.0 mm outer diameter and 0.6 mm inner diameter was surgically inserted into the trachea under general anesthesia. Mice were placed in a supine position and connected to a ventilator. Mice were pressure-controlled ventilated with either an inspiratory pressure of 10 cm H2O (resulting in VT˜7.5 mL/kg; low VT, LVT) or an inspiratory pressure of 18 cm H2O (resulting in VT˜15 mL/kg; high VT, HVT). Positive end-expiratory pressure (PEEP) is set at 2 cm H2O with both MV-strategies. The fraction of inspired oxygen was kept at 0.5 throughout the experiment. The inspiration to expiration ratio was kept at 1:1 throughout the experiment.
# BALF was obtained by instilling 3 times 0.5 mL aliquots of saline by a 22-gauge Abbocath-T catheter (Abbott, Sligo, Ireland) into the trachea. Approximately, 1.0 mL of BALF was retrieved per mouse and cell counts were determined using a hemacytometer (Beckman Coulter, Fullerton, Calif.). Subsequently, differential counts were done on cytospin preparations stained with a modified Giemsa stain, Diff-Quick (Dade Behring AG, Düdingen, Switzerland). Supernatant was stored at −80° C.
# Total protein levels in BALF are determined using a Bradford Protein Assay Kit (OZ Biosciences, Marseille, France) according to manufacturers' instructions with bovine serum albumin as standard. Mouse IgM was determined by ELISA by using anti-Mouse IgM sensitized 96-strip micro-well plates according to manufacturers' instructions (IMMUNO-TEK kit from ZeptoMetrix).
# [1] = LPS + high tidal volume ventilation (LPS-HTV), i.v. 4 mg/kg loading, then 1 mg/kg/h
# [2] = LPS + low tidal volume ventilation (LPS+LTV), compared to scrambled peptide
# [3] = LPS + low tidal volume ventilation (LPS+LTV), protocol caused no pronounced increase
sequence,measurement,setting,value
GRRPLGGISGG (/note=“Description of artificial sequence cingulin-derived peptide XIB1-b”),IgM content in the BALF,[1],significant decrease
same,neutrophil count in the BALF,[1],significant decrease
same,total cell count in the BALF,[1],significant decrease
same,total protein content in the BALF,[1],significant decrease
same,neutrophil counts in the BALF,[2],significantly reduced
same,total cell counts in the BALF,[2],significantly reduced
same,IgM content in the BALF,[3],no effect
same,total protein content in the BALF,[3],no effect
